Measured values published in PMC5848165 (Toxins, 2018).
Where two headings read alike, the source gives them in different places. Residues, ends and D or L forms follow the SMILES beside them.

Key:
[1] = tested on: acetic acid-induced writhing response in mice; assay type: in vivo, mouse (Kunming); details: counted 30 min after 0.8% acetic acid i.p., control 61, n = 6
[2] = tested on: WT Nav1.7, domain II voltage sensor; experiment: Voltage sensor trapping test on WT Nav1.7 (patch clamp pulse protocols); assay type: cell-based, human; details: 10 µM
Method: It has been proven that scorpion β-toxins trapped the domain II S4 voltage sensor in the outward position. However, HWTX-IV inhibited sodium channels by trapping voltage sensor in a closed configuration [15]. We wondered whether JZTX-34 blocked sodium channels in a resting state or an outward position. The current traces were recorded by a 50 ms depolarizing pulse of −10 mV from a holding potential of −80 mV. At first, 10 µM JZTX-34 was added to cells and incubated for 5 min. Then, the currents were elicited by the protocol described before. […] To further confirm this, the same protocol described by Cestele et al. was used to assess whether JZTX-34 traps the domain II S4 voltage sensor of the WT Nav1.7 in a closed position. A 15 ms test pulse to 0 mV was applied from a holding potential of −80 mV and was followed by a 1 ms conditioning pulse to +50 mV. Then, a 15 ms test pulse to −65 mV was used to detect whether the currents were elicited.
Figure 5 JZTX-34 traps the domain II voltage sensor in closed configuration. (A) Nav1.7 current traces were elicited by a protocol as following. First, an inward sodium currents were elicited by a 50 ms depolarizing potential to 0 mV from a holding potential of −80 mV every 5 s. Second, 10 μM JZTX-34 were added to bath solution. Finally, the same pulse protocol was applied to elicit inward currents after a 5 min toxin treatment. (B) The current traces 0, 15 ms, 100 ms, and 5 min after toxin treatment are shown, which were elicited by a protocol as shown in C. (C) This pulse protocol was included three phases and applied every 5 s. […]
The HEK293T cells were maintained in standard culture conditions (5% CO2 and 37 °C). […] After culturing for 36–72 h, cells with obvious green fluorescence were selected for sodium currents recordings the internal solution for sodium currents recording that contained (in mM) 140 CsF, 5 NaCl, 10 HEPES, 3 Na2-ATP, and 10 EGTA. […]
Sodium currents were recorded from DRG, HEK293, and ND cells by the whole-cell patch-clamp technique at 25 °C. […]

[3] = tested on: formalin-induced paw licking response in mice; experiment: Formalin-induced paw licking; assay type: in vivo, mouse (Kunming); details: for paw licking time, early phase: control 145.5 s; for paw licking time, early phase / paw licking time, late phase: n = 6; for paw licking time, late phase: control 414.5 s
Method: Since Nav1.7 plays an important role in pain, the analgesic effects of JZTX-34 were examined in three animal models (formalin-induced paw licking, acetic acid-induced writhing, and hot plate). Intraplantar injection of formalin causes pain and can be divided into two phases. The early phase was neurogenic pain and usually occurred within […]), and the late phase was inflammatory pain lasting from 15 to 30 min).
Figure 6 Effects of JZTX-34 on pain. (A) Effects of JZTX-34 on the early phase (0–5 min) and late phase (15–30 min) of formalin-induced paw licking response in mice. (B) Effects of JZTX-34 on the acetic acid-induced writhing response in mice. (C)Effects of JZTX-34 on the hot plate test in mice.
The synthesized JZTX-34 was obtained according to the procedure as previously described. […] Rats (Sprague-Dawley) and Kunming mice were maintained in the Laboratory of Protein Chemistry of Hunan Normal University. All of the experimental involving animals were approved by the Animal Care and Use Committee of Hunan Normal University (2016-273, 13 October 2016).
Formalin test was performed according to the method described previously. […] After test samples were intraperitoneally (i.p.) injected, 5% formalin (20 μL) was injected to the plantar surface of right hind paw. The time spent licking the injected paw was counted every 5 min. Phase I was defined as 0–10 min, and Phase II defined as […].
Data from Axon 700B patch clamp were analyzed by Clampfit10.0 (Molecular Devices, Sunnyvale, CA, USA). Dose-response curves were fitted by the Hill logistic equation: y = 1 − (1 − fmax)/[…]. In this equation, n stands an empirical Hill coefficient and fmax is the fraction of current resistant to inhibition at high toxin (Tx) concentration. The G-V curves were obtained by calculating the conductance (G) at each voltage (V) using the equation G = I/(V1 − Vrev), with Vrev being the reversal potential determined for each cell individually. G-V curves were fitted using a Boltzmann equation—y = 1/(1 + exp[(Va − V)/κ])—in which Va, V, and κ represent midpoint voltage of kinetics, test potential, and slope factor, respectively. […] Statistical significance was calculated using Student’s t-test and was defined as p < 0.05.

Structure (SMILES): CC(C)C[C@@H]1NC(=O)[C@H](Cc2c[nH]c3ccccc23)NC(=O)[C@H](CCC(=O)O)NC(=O)[C@H](CCCNC(=N)N)NC(=O)[C@@H](NC(=O)[C@H](C)N)CSSC[C@@H]2NC(=O)[C@@H]3CSSC[C@@H](C(=O)N[C@H](C(=O)N[C@@H](Cc4c[nH]c5ccccc45)C(=O)N[C@@H](CC(=O)O)C(=O)N[C@@H](Cc4c[nH]c5ccccc45)C(=O)N[C@H](C(=O)N[C@H](C(=O)O)C(C)C)[C@@H](C)O)C(C)C)NC(=O)[C@H](Cc4c[nH]cn4)NC(=O)[C@H](Cc4ccc(O)cc4)NC(=O)[C@@H]4CCCN4C(=O)[C@H](Cc4c[nH]c5ccccc45)NC(=O)[C@H](CCCCN)NC(=O)[C@H](CCCCN)NC(=O)[C@H](CCCNC(=N)N)NC(=O)[C@H](CSSC[C@H](NC(=O)CNC(=O)CNC1=O)C(=O)N[C@@H](CO)C(=O)N[C@@H](CCCCN)C(=O)N[C@@H](CC(=O)O)C(=O)N[C@@H](C)C(=O)N[C@@H](CC(=O)O)C(=O)N3)NC(=O)[C@H](CCC(=O)O)NC(=O)[C@H](CC(C)C)NC(=O)[C@H](Cc1c[nH]cn1)NC(=O)[C@H](C)NC2=O [JZTX-34, Jingzhaotoxin-34] (HELM PEPTIDE1{A.C.R.E.W.L.G.G.C.S.K.D.A.D.C.C.A.H.L.E.C.R.K.K.W.P.Y.H.C.V.W.D.W.T.V}$PEPTIDE1,PEPTIDE1,2:R3-16:R3|PEPTIDE1,PEPTIDE1,9:R3-21:R3|PEPTIDE1,PEPTIDE1,15:R3-29:R3$$$V2.0; N-terminus and C-terminus assumed)
- number of writhing ([1]; 0.5 mg/kg i.p.): 38
- number of writhing ([1]; 1 mg/kg i.p.): 26
- number of writhing ([1]; 2 mg/kg i.p.): 11
- inhibition at first pulse after incubation at rest ([2]; 5 min incubation, −10 mV (legend: 0 mV) from −80 mV): currents were significantly inhibited at the first pulse
- current amplitude at first test pulse (0 mV) ([2]; 15 ms test pulse to 0 mV from −80 mV): greatly depressed in a time-dependent manner
- inward current at second test pulse (−65 mV) ([2]; after 1 ms conditioning pulse to +50 mV): no inward current was observed
- paw licking time, early phase ([3]; 0.5 mg/kg i.p.): 125.5 s
- paw licking time, late phase ([3]; 0.5 mg/kg i.p.): 282.2 s
- paw licking time, early phase ([3]; 1 mg/kg i.p.): 50.1 s
- paw licking time, late phase ([3]; 1 mg/kg i.p.): 263.6 s
- paw licking time, early phase ([3]; 2 mg/kg i.p.): 34.7 s
- paw licking time, late phase ([3]; 2 mg/kg i.p.): 148.0 s
- formalin first phase, efficacy vs morphine ([3]; JZTX-34 2 mg/kg vs morphine 5 mg/kg): equipotent with morphine (5 mg/kg)
